Measured values reported in publication PMC4775085 (ACS chemical neuroscience, 2015).

What was measured:
[1] = tested on: acetylated histone 3 in N2a cells; test: Acetylated histone 3/histone 4 ratio in N2a cells by Western blot; format: cell-based, mouse; details: overnight, vehicle = 1.00
[2] = molecular target: HDAC5 (Homo sapiens, UniProt Q9UQL6); test: HDAC5 enzymatic inhibition assay
[3] = molecular target: HDAC2 (Homo sapiens, UniProt Q92769); test: HDAC2 enzymatic inhibition assay
[4] = molecular target: T1, HDAC8 (Homo sapiens, UniProt Q9BY41); test: HDAC8 enzymatic inhibition assay
T1 sequence (Q9BY41 1-377): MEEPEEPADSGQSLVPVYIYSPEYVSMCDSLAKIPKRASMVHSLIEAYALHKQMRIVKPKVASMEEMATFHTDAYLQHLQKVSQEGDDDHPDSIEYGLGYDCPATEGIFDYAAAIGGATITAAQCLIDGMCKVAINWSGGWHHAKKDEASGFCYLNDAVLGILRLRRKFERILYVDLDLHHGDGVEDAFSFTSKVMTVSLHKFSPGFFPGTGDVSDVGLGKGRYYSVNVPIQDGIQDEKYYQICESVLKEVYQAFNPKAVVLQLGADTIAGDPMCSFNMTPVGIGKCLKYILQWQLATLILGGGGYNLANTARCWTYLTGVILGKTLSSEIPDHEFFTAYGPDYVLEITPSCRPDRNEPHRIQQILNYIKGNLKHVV

[5] = molecular target: HDAC1 (Homo sapiens, UniProt Q13547); test: HDAC1 enzymatic inhibition assay; format: biochemical; details: HDAC1 IC50, singlet 10-dose IC50 mode, 3-fold serial dilution starting at 100 μM
Sequence of HDAC1 (Q13547 whole entry): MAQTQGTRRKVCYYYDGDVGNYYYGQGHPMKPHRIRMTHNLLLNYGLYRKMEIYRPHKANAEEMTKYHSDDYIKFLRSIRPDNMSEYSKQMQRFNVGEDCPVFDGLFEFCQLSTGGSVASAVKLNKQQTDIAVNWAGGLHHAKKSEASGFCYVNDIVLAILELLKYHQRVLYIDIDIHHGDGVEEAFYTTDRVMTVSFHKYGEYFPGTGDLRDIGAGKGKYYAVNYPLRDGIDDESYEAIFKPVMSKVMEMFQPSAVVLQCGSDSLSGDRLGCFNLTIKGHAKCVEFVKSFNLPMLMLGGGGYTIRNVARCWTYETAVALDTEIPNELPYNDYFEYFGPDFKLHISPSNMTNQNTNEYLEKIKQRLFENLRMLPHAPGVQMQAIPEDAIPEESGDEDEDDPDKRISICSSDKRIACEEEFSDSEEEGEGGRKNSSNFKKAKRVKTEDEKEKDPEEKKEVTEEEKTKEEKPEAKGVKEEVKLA

[6] = molecular target: T2, HDAC7 (Homo sapiens, UniProt Q8WUI4); test: HDAC7 enzymatic inhibition assay
T2 sequence (Q8WUI4 1-952): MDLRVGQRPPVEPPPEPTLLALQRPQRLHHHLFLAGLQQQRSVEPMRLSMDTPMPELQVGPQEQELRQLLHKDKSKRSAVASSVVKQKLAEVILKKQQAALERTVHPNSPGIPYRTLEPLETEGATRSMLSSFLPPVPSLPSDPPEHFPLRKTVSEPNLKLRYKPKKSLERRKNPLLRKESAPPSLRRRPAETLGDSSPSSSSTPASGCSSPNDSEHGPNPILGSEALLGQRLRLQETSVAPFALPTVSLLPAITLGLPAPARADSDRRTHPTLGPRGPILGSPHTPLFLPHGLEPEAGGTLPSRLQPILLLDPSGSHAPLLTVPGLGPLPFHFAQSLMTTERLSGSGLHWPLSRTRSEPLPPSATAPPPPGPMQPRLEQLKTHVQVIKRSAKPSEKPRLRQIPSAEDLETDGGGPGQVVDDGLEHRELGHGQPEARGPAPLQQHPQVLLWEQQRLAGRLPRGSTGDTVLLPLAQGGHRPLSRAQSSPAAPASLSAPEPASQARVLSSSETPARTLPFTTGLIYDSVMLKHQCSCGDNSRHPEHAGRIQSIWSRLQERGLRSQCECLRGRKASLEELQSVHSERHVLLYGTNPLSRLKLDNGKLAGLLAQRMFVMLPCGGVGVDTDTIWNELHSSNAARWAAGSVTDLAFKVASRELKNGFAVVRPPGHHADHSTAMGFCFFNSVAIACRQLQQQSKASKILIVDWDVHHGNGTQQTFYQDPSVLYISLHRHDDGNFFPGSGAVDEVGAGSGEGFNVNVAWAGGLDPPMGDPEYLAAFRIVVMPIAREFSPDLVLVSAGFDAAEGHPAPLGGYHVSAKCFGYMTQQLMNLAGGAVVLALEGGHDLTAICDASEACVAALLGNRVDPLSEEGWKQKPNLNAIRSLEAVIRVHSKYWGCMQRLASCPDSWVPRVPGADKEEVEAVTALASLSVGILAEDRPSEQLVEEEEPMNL

[7] = molecular target: T3, HDAC10 (Homo sapiens, UniProt Q969S8); test: HDAC10 enzymatic inhibition assay
T3 sequence (Q969S8 1-669): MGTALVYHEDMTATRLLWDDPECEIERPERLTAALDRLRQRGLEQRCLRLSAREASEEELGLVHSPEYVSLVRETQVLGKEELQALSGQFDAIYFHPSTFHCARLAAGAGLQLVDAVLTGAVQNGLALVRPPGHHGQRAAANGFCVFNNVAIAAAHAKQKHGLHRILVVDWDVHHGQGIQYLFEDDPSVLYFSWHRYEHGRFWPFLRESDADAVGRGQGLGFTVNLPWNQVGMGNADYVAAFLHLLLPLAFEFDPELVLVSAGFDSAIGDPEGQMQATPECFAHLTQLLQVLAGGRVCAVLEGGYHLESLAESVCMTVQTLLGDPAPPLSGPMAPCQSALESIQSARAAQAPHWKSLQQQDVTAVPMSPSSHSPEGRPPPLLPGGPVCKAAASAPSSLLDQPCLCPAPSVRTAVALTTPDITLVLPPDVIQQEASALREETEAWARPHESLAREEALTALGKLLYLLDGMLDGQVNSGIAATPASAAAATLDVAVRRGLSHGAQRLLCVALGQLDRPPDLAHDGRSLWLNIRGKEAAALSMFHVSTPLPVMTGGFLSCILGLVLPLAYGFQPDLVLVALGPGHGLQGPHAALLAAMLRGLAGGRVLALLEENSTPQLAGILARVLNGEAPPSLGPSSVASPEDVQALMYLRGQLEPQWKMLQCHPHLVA

[8] = tested on: mutant HSPB1 DRG neurons; test: Mitochondrial axonal transport in mutant HSPB1 DRG neurons; format: cell-based, mouse; details: DRG neurons from transgenic mutant HSPB1 mice, 100 nM overnight
[9] = molecular target: HDAC3 (Homo sapiens, UniProt O15379); test: HDAC3 enzymatic inhibition assay
Sequence of HDAC3 (O15379 whole entry): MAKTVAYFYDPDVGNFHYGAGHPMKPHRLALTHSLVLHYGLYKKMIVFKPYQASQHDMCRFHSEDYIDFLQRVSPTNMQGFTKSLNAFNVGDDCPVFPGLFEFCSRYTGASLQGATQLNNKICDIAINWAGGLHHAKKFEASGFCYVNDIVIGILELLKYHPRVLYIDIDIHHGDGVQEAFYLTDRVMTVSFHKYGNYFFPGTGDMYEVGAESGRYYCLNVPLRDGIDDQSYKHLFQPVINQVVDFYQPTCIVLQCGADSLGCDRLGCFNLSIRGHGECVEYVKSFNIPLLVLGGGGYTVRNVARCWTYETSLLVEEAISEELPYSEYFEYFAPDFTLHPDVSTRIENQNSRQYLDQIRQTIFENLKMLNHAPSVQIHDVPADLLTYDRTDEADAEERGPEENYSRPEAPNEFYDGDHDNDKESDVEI
Sequence of HDAC3 (Q9Y618 395-489 partner limits assumed): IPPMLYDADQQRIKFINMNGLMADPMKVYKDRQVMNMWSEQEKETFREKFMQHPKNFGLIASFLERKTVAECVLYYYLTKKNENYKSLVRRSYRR

[10] = molecular target: HDAC4 (Homo sapiens, UniProt P56524); test: HDAC4 enzymatic inhibition assay
Sequence of HDAC4 (P56524 whole entry): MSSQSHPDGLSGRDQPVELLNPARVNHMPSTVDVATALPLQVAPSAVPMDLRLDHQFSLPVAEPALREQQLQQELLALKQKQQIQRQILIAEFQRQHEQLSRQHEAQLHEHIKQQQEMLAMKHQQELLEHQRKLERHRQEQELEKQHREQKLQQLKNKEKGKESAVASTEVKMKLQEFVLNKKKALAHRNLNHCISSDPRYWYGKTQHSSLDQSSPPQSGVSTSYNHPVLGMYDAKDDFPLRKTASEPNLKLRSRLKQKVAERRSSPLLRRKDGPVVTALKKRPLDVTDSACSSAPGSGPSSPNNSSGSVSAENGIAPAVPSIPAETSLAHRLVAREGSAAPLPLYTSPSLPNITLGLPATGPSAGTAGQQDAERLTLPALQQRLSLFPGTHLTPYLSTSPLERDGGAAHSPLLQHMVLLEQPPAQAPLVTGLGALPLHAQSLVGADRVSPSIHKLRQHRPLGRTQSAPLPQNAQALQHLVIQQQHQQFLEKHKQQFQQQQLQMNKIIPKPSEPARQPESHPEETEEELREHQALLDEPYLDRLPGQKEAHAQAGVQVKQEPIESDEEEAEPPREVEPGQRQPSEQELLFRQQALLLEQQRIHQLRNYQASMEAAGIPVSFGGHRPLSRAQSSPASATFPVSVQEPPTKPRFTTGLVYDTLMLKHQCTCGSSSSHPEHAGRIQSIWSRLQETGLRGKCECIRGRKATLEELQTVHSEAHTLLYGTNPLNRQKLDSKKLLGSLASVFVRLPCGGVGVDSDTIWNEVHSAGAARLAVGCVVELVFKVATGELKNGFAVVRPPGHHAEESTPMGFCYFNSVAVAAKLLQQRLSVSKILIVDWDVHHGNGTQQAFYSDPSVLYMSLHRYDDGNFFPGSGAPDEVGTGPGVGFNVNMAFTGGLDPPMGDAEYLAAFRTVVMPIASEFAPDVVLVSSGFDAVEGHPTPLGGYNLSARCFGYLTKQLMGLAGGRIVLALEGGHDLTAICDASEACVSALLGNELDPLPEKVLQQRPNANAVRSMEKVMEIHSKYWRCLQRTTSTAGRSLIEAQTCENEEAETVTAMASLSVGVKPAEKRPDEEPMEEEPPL

Sequence of HDAC5 (Q9UQL6 whole entry): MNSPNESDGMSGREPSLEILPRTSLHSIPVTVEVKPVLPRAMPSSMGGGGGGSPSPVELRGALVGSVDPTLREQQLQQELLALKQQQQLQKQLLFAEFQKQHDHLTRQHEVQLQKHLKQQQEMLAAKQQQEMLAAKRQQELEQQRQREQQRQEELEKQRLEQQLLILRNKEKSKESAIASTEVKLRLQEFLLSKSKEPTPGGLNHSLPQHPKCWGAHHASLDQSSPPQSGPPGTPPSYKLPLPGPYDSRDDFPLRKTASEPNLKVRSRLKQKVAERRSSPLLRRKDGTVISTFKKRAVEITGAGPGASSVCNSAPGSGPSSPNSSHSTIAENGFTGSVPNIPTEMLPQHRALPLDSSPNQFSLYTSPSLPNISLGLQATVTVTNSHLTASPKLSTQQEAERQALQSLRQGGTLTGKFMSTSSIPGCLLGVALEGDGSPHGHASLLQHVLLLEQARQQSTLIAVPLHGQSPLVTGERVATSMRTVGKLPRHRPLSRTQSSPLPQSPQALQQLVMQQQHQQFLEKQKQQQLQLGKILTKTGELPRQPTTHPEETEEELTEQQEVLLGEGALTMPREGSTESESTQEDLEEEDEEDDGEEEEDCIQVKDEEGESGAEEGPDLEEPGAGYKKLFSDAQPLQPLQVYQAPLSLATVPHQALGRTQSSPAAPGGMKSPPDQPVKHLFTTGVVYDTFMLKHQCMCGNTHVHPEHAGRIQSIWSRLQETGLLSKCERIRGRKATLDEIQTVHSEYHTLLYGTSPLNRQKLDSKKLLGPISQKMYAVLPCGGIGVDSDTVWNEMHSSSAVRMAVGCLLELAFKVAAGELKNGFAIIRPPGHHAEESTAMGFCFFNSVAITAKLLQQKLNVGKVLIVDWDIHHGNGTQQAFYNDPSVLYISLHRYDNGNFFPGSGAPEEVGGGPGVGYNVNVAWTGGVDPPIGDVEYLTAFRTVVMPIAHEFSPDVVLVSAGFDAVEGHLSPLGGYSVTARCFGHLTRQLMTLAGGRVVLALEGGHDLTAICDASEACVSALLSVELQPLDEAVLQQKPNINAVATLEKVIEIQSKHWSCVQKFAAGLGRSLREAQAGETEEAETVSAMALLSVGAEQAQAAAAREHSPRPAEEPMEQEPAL
Sequence of HDAC2 (Q92769 whole entry): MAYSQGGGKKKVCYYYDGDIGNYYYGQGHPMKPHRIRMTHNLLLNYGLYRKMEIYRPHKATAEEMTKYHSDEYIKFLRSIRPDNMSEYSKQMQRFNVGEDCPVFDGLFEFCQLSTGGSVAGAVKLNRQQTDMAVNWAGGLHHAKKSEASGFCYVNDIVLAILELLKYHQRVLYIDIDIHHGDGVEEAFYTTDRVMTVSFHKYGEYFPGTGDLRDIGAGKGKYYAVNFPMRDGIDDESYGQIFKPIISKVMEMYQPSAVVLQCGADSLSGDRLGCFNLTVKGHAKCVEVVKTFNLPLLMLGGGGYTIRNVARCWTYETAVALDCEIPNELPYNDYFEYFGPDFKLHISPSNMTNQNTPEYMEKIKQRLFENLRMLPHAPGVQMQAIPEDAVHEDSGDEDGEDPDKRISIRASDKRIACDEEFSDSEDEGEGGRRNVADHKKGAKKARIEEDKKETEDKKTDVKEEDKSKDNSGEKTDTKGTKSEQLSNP

SMILES: Cc1nc2ccc(F)cc2n1Cc1ccc(C(=O)NO)cc1 [30a, 4-[(6-Fluoro-2-methyl-1-benzimidazolyl)methyl]-N-hydroxybenzamide]
- ratio acetylated H3/H4 (1 μM) mean [1]: did not alter the acetylation of histone 3
- IC50 [2]: 0.397 µM
- IC50 [3]: 7.43 µM
- IC50 [4]: 0.368 µM
- IC50 [5]: 4.36 µM
- IC50 [6]: 0.211 µM
- IC50 [7]: 11.8 µM
- mitochondrial axonal transport (number of moving mitochondria per 100 μm of neurite) [8]: able to restore the movement of mitochondria
- IC50 [9]: 10 µM
- IC50 [10]: 1.46 µM
